According to patent US20220323406A1, “METHODS AND COMPOSITIONS FOR DIFFERENTIATING STEM CELLS” (Massachusetts Institute of Technology, priority 2019, published 2022):

Key:
[1] = tested on: ENR+CD organoids (ISC to Paneth cell differentiation); assay: Primary screen: basal (non-stimulated) lysozyme secretion LYZ.NS, 2.5-D 384-well ENR+CD organoid differentiation; type: cell-based, mouse
Text: (§1) High-throughput screening.

[2] = tested on: ENR+CD organoids (ISC to Paneth cell differentiation); assay: Primary screen: CCh-stimulated lysozyme secretion LYZ.S, 2.5-D 384-well ENR+CD organoid differentiation; type: cell-based, mouse; settings: primary screen
Text: as §1

[3] = tested on: ENR+CD organoids; assay: Primary screen: ATP (CellTiter-Glo 3D, CTG) cell number/viability, 2.5-D 384-well ENR+CD organoids; settings: primary screen; for Z.CTG: standard z score;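 as to all read-outs here: compounds given at plating and again on day 3 over a 6-day differentiation from ENR+CV stem-cell-enriched precursors, ATP measured on day 6, plate median as control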
[4] = dose 0.08 uM, FC vs plate median
[5] = dose 0.40 uM, FC vs plate median
[6] = dose 2.00 uM, FC vs plate median
[7] = dose 10.00 uM, FC vs plate median

Compound	Dose.FC.LYZ.NS ([1]; primary screen, dose 0.08 uM) [log2 fold change]	Dose.FC.LYZ.NS ([1]; primary screen, dose 0.40 uM) [log2 fold change]	Dose.FC.LYZ.NS ([1]; primary screen, dose 2.00 uM) [log2 fold change]	Dose.FC.LYZ.NS ([1]; primary screen, dose 10.00 uM) [log2 fold change]	Dose.FC.LYZ.S ([2]; dose 0.08 uM) [log2 fold change]	Dose.FC.LYZ.S ([2]; dose 0.40 uM) [log2 fold change]	Dose.FC.LYZ.S ([2]; dose 2.00 uM) [log2 fold change]	Dose.FC.LYZ.S ([2]; dose 10.00 uM) [log2 fold change]	Dose.FC.CTG ([3]; dose 0.08 uM) [log2 fold change]	Dose.FC.CTG ([3]; dose 0.40 uM) [log2 fold change]	Dose.FC.CTG ([3]; dose 2.00 uM) [log2 fold change]	Dose.FC.CTG ([3]; dose 10.00 uM) [log2 fold change]	Dose.FC.LYZ.NS (log2 fold change) ([1]; primary screen, dose 0.08 uM)	Z.LYZ.NS (standard z score) ([1]; primary screen, dose 0.08 uM)	Dose.FC.LYZ.NS (log2 fold change) ([1]; primary screen, dose 0.40 uM)	Z.LYZ.NS (standard z score) ([1]; primary screen, dose 0.40 uM)	Dose.FC.LYZ.NS (log2 fold change) ([1]; primary screen, dose 2.00 uM)	Z.LYZ.NS (standard z score) ([1]; primary screen, dose 2.00 uM)	Dose.FC.LYZ.NS (log2 fold change) ([1]; primary screen, dose 10.00 uM)	Z.LYZ.NS (standard z score) ([1]; primary screen, dose 10.00 uM)	also measured
CC(C)NC[C@@H](C(=O)N1CCN(c2ncnc3c2[C@H](C)C[C@H]3O)CC1)c1ccc(Cl)cc1 [GDC-0068]	0.036	0.054	−0.077	−0.185	0.076	0.087	−0.059	−0.319	0.042	0.118	0.184	−0.100									Z.LYZ.NS ([1]; primary screen, standard z score, dose 0.08 uM): 0.311; Z.LYZ.NS ([1]; primary screen, standard z score, dose 0.40 uM): 0.469; Z.LYZ.NS ([1]; primary screen, standard z score, dose 2.00 uM): −0.675; Z.LYZ.NS ([1]; primary screen, standard z score, dose 10.00 uM): −1.613; Z.CTG ([3]; dose 0.08 uM): 0.099; Z.CTG ([3]; dose 0.40 uM): 0.283; Z.CTG ([3]; dose 2.00 uM): 0.439; Z.CTG ([3]; dose 10.00 uM): −0.238
O=C(C[S+]([O-])Cc1ccco1)NC/C=C\COc1cc(CN2CCCCC2)ccn1 (stereo not drawn) [Lafutidine]													0.043	0.372	0.007	0.059	0.037	0.320	0.075	0.657	Dose.FC.LYZ.S (log2 fold change) ([2]; dose 0.08 uM): 0.052; Dose.FC.LYZ.S (log2 fold change) ([2]; dose 0.40 uM): 0.078; Dose.FC.LYZ.S (log2 fold change) ([2]; dose 2.00 uM): 0.076; Dose.FC.LYZ.S (log2 fold change) ([2]; dose 10.00 uM): −0.014; Dose.FC.CTG (log2 fold change) ([3]; dose 0.08 uM): 0.152; Dose.FC.CTG (log2 fold change) ([3]; dose 0.40 uM): 0.145; Dose.FC.CTG (log2 fold change) ([3]; dose 2.00 uM): 0.138; Dose.FC.CTG (log2 fold change) ([3]; dose 10.00 uM): −0.098
NC(=O)c1ncn([C@@H]2O[C@H](CO)[C@@H](O)[C@H]2O)c1N [Acadesine]	0.023	−0.016	0.016	−0.070	0.004	−0.012	0.053	−0.102	0.094	0.173	−0.005	0.076		0.198		−0.137		0.140		−0.607	
COc1ccc2c(c1)C(=O)N(CCc1ccc(S(=O)(=O)NC(=O)NC3CCCCC3)cc1)C(=O)C2(C)C [Gliquidone]													0.103	0.893	0.037	0.322	0.086	0.747	0.031	0.268	Dose.FC.LYZ.S (log2 fold change) ([2]; dose 0.08 uM): 0.101; Dose.FC.LYZ.S (log2 fold change) ([2]; dose 0.40 uM): 0.070; Dose.FC.LYZ.S (log2 fold change) ([2]; dose 2.00 uM): 0.006; Dose.FC.LYZ.S (log2 fold change) ([2]; dose 10.00 uM): −0.020; Dose.FC.CTG (log2 fold change) ([3]; dose 0.08 uM): 0.124; Dose.FC.CTG (log2 fold change) ([3]; dose 0.40 uM): 0.103; Dose.FC.CTG (log2 fold change) ([3]; dose 2.00 uM): 0.246; Dose.FC.CTG (log2 fold change) ([3]; dose 10.00 uM): 0.134
CC(C)C[C@H](NC(=O)CNC(=O)c1cc(Cl)ccc1Cl)B(O)O [MLN2238]																					Z.LYZ.NS ([1]; primary screen, dose 0.08 uM, standard z score): −2.358; Z.LYZ.NS ([1]; primary screen, dose 0.40 uM, standard z score): −2.477; Z.LYZ.NS ([1]; primary screen, dose 2.00 uM, standard z score): −2.166; Z.LYZ.NS ([1]; primary screen, dose 10.00 uM, standard z score): −2.597; Dose.FC.LYZ.NS ([1]; primary screen; dose 0.08 uM; FC vs plate median): −0.271 log2 fold change; Dose.FC.LYZ.NS ([1]; primary screen; dose 0.40 uM; FC vs plate median): −0.284 log2 fold change; Dose.FC.LYZ.NS ([1]; primary screen; dose 2.00 uM; FC vs plate median): −0.249 log2 fold change; Dose.FC.LYZ.NS ([1]; primary screen; dose 10.00 uM; FC vs plate median): −0.298 log2 fold change; Dose.FC.LYZ.S [2, 4]: −0.383 log2 fold change; Dose.FC.LYZ.S [2, 5]: −0.358 log2 fold change; Dose.FC.LYZ.S [2, 6]: −0.353 log2 fold change; Dose.FC.LYZ.S [2, 7]: −0.370 log2 fold change; Dose.FC.CTG [3, 4]: −1.655 log2 fold change; Dose.FC.CTG [3, 5]: −1.104 log2 fold change; Dose.FC.CTG [3, 6]: −1.233 log2 fold change; Dose.FC.CTG [3, 7]: −1.761 log2 fold change
